Experiments:
synthetic Aβ(1-40) = biological target: T1, synthetic Aβ(1-40) (Homo sapiens, UniProt P05067); experiment: Competition of [3H]BTA-1 binding from synthetic Aβ(1-40); conditions: for Ki: inhibition constant for competition of [3H]BTA-1 binding from synthetic Aβ(1-40), phosphate-buffered saline pH 7.4
T1 construct: host or cells: chemically synthesised peptide
Method: (§1) The characteristics of benzofuran derivative binding were analyzed using synthetic Aβ(1-40) and 2-(4′-[^3H]methylamino-phenyl)-benzothiazole ([^3H]BTA-1) in phosphate-buffered saline (pH 7.4) as previously described. Klunk et al., Life Sci. 69:1471 (2001); Mathis et al., Bioorg. Med. Chem. Lett., 12:295 (2002).
as §1, with “7.4),” for “7.4)”, “(2002). The table below lists the inhibition constants (Ki) of the four compounds shown for competition of [^3H]BTA-1 binding from synthetic Aβ(1-40).” for “(2002).”

[1] = Baboon brain entry study (PET); format: in vivo; conditions: 40 kg baboon, 8 mCi intravenously, PET imaging over 2 h post injection
Method: A 40 kg baboon was anesthetized, immobilized, and placed on a ventilator. The baboon was positioned in a PET scanner to image the brain, and a transmission scan was performed to correct for attenuation. The baboon was injected intravenously with a solution containing 8 mCi of 5-Methoxy-2-(4′-fluorophenyl)benzofuran, and the brain was imaged in a series of increasing data collection time bins over 2 h post injection. Following data acquisition, the images were reconstructed and regions of interest were drawn. Decay and […] corrected time-activity curves (TAC) were generated for each of the regions to determine the quantitative time course of radioactivity in each brain region.

T1 sequence (P05067 672-711): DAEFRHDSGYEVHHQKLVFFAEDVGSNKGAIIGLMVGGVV

Compound	Ki (synthetic Aβ(1-40)) [nM]	further results
Oc1ccc2cc(-c3ccc(F)cc3)oc2c1	96	–
Oc1ccc2oc(-c3ccc(OCCCF)cc3)cc2c1	1.2	–
Nc1ccc2oc(-c3ccc(F)cc3)cc2c1	28	–
CNc1ccc2oc(-c3ccc(F)cc3)cc2c1	2.8	–
CN(C)c1ccc2oc(-c3ccc(F)cc3)cc2c1	2	–
COc1ccc2oc(-c3ccc(F)cc3)cc2c1 [5-Methoxy-2-(4′-fluorophenyl)benzofuran]	–	brain penetration of the radiotracer (time-activity curves) [1]: excellent brain penetration; clearance of radioactivity from normal baboon brain (time-activity curves) [1]: rapid clearance; affinity of the ligand in vitro for aggregated amyloid (synthetic Aβ(1-40); in vitro, in words): relatively high affinity
COc1ccc2oc(-c3ccc(F)cc3)cc2c1 [drawing 23]	3.7	–

Further lines, with some results ahead:

Ki (synthetic Aβ(1-40)) [nM]	Compound	further results
27.7	Oc1ccc2oc(-c3ccc(F)cc3)cc2c1	–
3.9	COc1ccc2cc(-c3ccc(F)cc3)oc2c1	–

From US8138360B2, “Isotopically-labeled benzofuran compounds as imaging agents for amyloidogenic proteins” (University of Pittsburgh—of the Commonwealth System of …, priority 2005, dated 2012)
